The assay has as its target T1, human LMPTP-A (Homo sapiens, UniProt P24666).
T1 sequence (P24666 1-158): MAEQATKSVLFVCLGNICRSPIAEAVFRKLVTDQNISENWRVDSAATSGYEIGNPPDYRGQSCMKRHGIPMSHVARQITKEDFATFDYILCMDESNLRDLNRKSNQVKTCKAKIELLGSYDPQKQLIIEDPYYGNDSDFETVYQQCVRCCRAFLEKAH
The assay is described as follows: Enzyme Assay of Inhibition of LMPTP-A. It counts as biochemical. The following applies: phosphatase assay, OMFP or pNPP substrate, 50 mM Bis-Tris pH 6.0, 37° C. The protocol: Phosphatase assays were performed in buffer containing 50 mM Bis-Tris, pH 6.0, 1 mM DTT and 0.01% Triton X-100 at 37° C. For assays conducted with 3-O-methylfluorescein phosphate (OMFP) as substrate, fluorescence was monitored continuously at λex=485 and λem=525 nm. For assays conducted with para-nitrophenylphosphate (pNPP) as substrate, the reaction was stopped by addition of 2× reaction volume of 1 M NaOH, and absorbance was measured at 405 nm. IC50 values of compounds disclosed herein were determined from plots of inhibitor concentration versus percentage of enzyme activity. For inhibitor selectivity assays, each PTP was incubated with either 0.4 mM OMFP or 5 mM pNPP in the presence of 40 μM compound or DMSO. […] For the inhibitor reversibility assay, 50 nM human LMPTP-A was pre-incubated with 10 μM of compound disclosed herein or DMSO for 5 min. The enzyme was diluted 100× in phosphatase assay buffer containing 0.4 mM OMFP and fluorescence was measured at the indicated time points.

Where only a bound is given, the exact number is not on record here.

The values that follow come from US20200338084A1, “INHIBITORS OF LOW MOLECULAR WEIGHT PROTEIN TYROSINE PHOSPHATASE (LMPTP) AND USES THEREOF” (Sanford Burnham Prebys Medical Discovery Institute, priority 2018, published 2020).

For `CNc1ncn(Cc2c(Cl)cccc2Cl)c2ncnc1-2` [[3-(2,6-Dichloro-benzyl)-3H-purin-6-yl]-methyl-amine], the IC50 (as a rule, the midpoint of a concentration-inhibition curve) was in the range of 1 to 20 µM.

As for `Nc1ncn(Cc2ccc(Cl)cc2)c2ncnc1-2` [3-(4-Chloro-benzyl)-3H-purin-6-ylamine], the IC50 is at least 20 µM.

For the compound `Nc1ncn(Cc2ccccc2)c2ncnc1-2` [3-benzyl-3-hydropurine-6-ylamine, 3-Benzyl-3-hydropurine-6-ylamine], the half-maximal inhibitory concentration (IC50) lay in the range of 1 to 20 µM.

In turn, `CN(C)C(=O)c1ccc(Nc2ncn(Cc3c(Cl)cccc3Cl)c3ncnc2-3)cc1` [4-((3-(2,6-Dichlorobenzyl)-3H-purin-6-yl)amino)-N,N-dimethylbenzamide] registered a half-maximal inhibitory concentration (IC50) of 1 to 20 µM.

Consider `COc1ccc(Cn2cnc(N)c3ncnc2-3)cc1` [3-(4-Methoxy-benzyl)-3H-purin-6-ylamine], for which the IC50 fell in the range of 1 to 20 µM.

For `COc1cccc(Nc2ncn(Cc3c(Cl)cccc3Cl)c3ncnc2-3)c1` [{3-[(2,6-Dichlorophenyl)methyl](3-hydropurin-6-yl)}(3-methoxyphenyl)amine], the IC50 was in the range of 1 to 20 µM.

With `NC(=O)c1cccc(Cl)c1Cn1cnc(N)c2ncnc1-2` [2-((6-amino-3H-purin-3-yl)methyl)-3-chlorobenzamide], the 50% inhibitory concentration (IC50) was at most 1 µM.

In turn, `Nc1ncn(Cc2c(Cl)ccnc2Cl)c2ncnc1-2` [3-[(2,4-dichloro-3-pyridyl)methyl]-3-hydropurine-6-ylamine] yielded an IC50 of at most 1 µM.

Take `CS(=O)(=O)Nc1ncn(Cc2c(Cl)cccc2Cl)c2ncnc1-2` [N-(3-(2,6-dichlorobenzyl)-3h-purin-6-yl)methanesulfonamide]: the IC50 is at least 20 µM.

The compound `Nc1ncn(Cc2c(Cl)cccc2Cl)c2nc(C3CCNCC3)nc1-2` [3-[(2,6-Dichlorophenyl)methyl]-8-(4-piperidyl)-3-hydropurine-6-ylamine] registered an IC50 of at most 1 µM.

`Nc1ncn(Cc2c(Cl)cccc2Cl)c2nc(-c3ccc[nH]3)nc1-2` [3-[(2,6-Dichlorophenyl)methyl]-8-pyrrol-2-yl-3-hydropurine-6-ylamine] had an IC50 of at most 1 µM.

On to `Nc1ncn(Cc2cccc(F)c2)c2ncnc1-2` [3-(3-Fluoro-benzyl)-3H-purin-6-ylamine], for which the IC50 was in the range of 1 to 20 µM.

For the compound `Clc1ccc(Cn2cnc(NCc3ccco3)c3ncnc2-3)c(Cl)c1` [[3-(2,4-Dichloro-benzyl)-3H-purin-6-yl]-furan-2-ylmethyl-amine], the IC50 was at least 20 µM.

In turn, `COC(=O)c1cccc(Cl)c1Cn1cnc(N)c2ncnc1-2` [2-(6-Amino-purin-3-ylmethyl)-3-chloro-benzoic acid methyl ester] came in with an IC50 of at most 1 µM.

On to `O=C(Nc1ncn(Cc2c(Cl)cccc2Cl)c2ncnc1-2)c1ccccn1` [Pyridine-2-carboxylic acid [3-(2,6-dichloro-benzyl)-3H-purin-6-yl]-amide], for which the concentration for half-maximal inhibition (IC50) fell in the range of 1 to 20 µM.

For the compound `CCCCCCc1nc2c(N)ncn(Cc3c(Cl)cccc3Cl)c-2n1` [3-[(2,6-Dichlorophenyl)methyl]-8-hexyl-3-hydropurine-6-ylamine], the IC50 was at most 1 µM.

Regarding `COCCNc1ncn(Cc2c(Cl)cccc2Cl)c2ncnc1-2` [[3-(2,6-Dichloro-benzyl)-3H-purin-6-yl]-(2-methoxy-ethyl)-amine], the IC50 was 1 to 20 µM.

As to `Nc1cccc(Cl)c1Cn1cnc(N)c2ncnc1-2` [3-(2-Amino-6-chlorobenzyl)-3H-purin-6-amine], the half-maximal inhibitory concentration (IC50) lay within 1 to 20 µM.

Take `Clc1cccc(Cl)c1Cn1cnc(NCCN2CCCCC2)c2ncnc1-2` [{3-[(2,6-Dichlorophenyl)methyl](3-hydropurin-6-yl)}(2-piperidylethyl)amine]: the IC50 was at least 20 µM.

On to `Nc1ncn(Cc2ccc(F)cc2)c2ncnc1-2` [3-(4-fluorobenzyl)-3H-purin-6-amine], for which the half-maximal inhibitory concentration (IC50) was at least 20 µM.

The compound `Cc1ccc(Cn2cnc(N)c3ncnc2-3)cc1` [3-(4-Methyl-benzyl)-3H-purin-6-ylamine] had an IC50 of at least 20 µM.

On to `COc1ccccc1Nc1ncn(Cc2c(Cl)cccc2Cl)c2ncnc1-2` [{3-[(2,6-Dichlorophenyl)methyl](3-hydropurin-6-yl)}(2-methoxyphenyl)amine], for which the IC50 lay in the range of 1 to 20 µM.
